Data taken from patent US20260049092A1, “ANTIBACTERIAL COMPOUNDS” (Blacksmith Medicines, Inc., priority 2022, published 2026).
≈ marks a conversion by molar mass, not a printed value. Read-outs that look alike come from different tables or passages of the source.

Key:
Assay in all cases: Bacterial susceptibility testing (MIC, broth microdilution)
Assay type in all cases: cell-based
P. aeruginosa ATCC27853 = conditions: for MIC: Pseudomonas aeruginosa
Method: (§1) Minimal inhibitory concentrations (MIC) were determined by the broth microdilution method in accordance with the Clinical and Laboratory Standards Institute (CLSI) guidelines. In brief, organism suspensions were adjusted to a final inoculum between 3×10^5 and 7×10^5 colony-forming units (CFU)/mL. Drug dilutions and inocula were made in sterile, cation adjusted Mueller-Hinton Broth (Beckton Dickinson). In wells, an inoculum volume of 100 μL was mixed to 2 μL of DMSO with 2-fold serial dilutions of drug. All inoculated microdilution trays were incubated in ambient air at 35° C. for 18-24 h. Following incubation, the lowest concentration of the drug that prevented visible growth (OD600 nm<0.05) was recorded as the MIC. Performance of the assay was monitored by the use of laboratory quality -control strains and compounds with defined MIC spectrum, in accordance with CLSI guidelines.

K. pneumoniae ATCC13883 = conditions: for MIC: Klebsiella pneumoniae
Method: as §1

E. coli ATCC25922 = conditions: for MIC: Escherichia coli
Method: as §1

P. aeruginosa PAO1 = conditions: for MIC: Pseudomonas aeruginosa
Method: as §1

[1] = ATCC27853, broth microdilution, cation adjusted Mueller-Hinton Broth, 35° C., 18-24 h, read-out: P. aeruginosa ATCC27853 MIC
[2] = ATCC13883, broth microdilution, cation adjusted Mueller-Hinton Broth, 35° C., 18-24 h, read-out: K. pneumoniae ATCC13883 MIC
[3] = ATCC25922, broth microdilution, cation adjusted Mueller-Hinton Broth, 35° C., 18-24 h, read-out: E. coli ATCC25922 MIC
[4] = PAO1, broth microdilution, cation adjusted Mueller-Hinton Broth, 35° C., 18-24 h, read-out: P. aeruginosa PAO1 MIC
[5] = broth microdilution, cation adjusted Mueller-Hinton Broth, 35° C., 18-24 h

| Compound | MIC (P. aeruginosa ATCC27853; [1]) | MIC (K. pneumoniae ATCC13883; [2]) | MIC (E. coli ATCC25922; [3]) | MIC (P. aeruginosa PAO1; [4]) | also measured |
| --- | --- | --- | --- | --- | --- |
| C[C@H](O)c1nccn1[C@@H](C#Cc1ccc(-c2ccc(OC3CN(S(C)(=O)=O)C3)cc2)cc1)CO [Compound 89, (S)-2-(2-((S)-1-hydroxyethyl)-1H-imidazol-1-yl)-4-(4′-((1-(methylsulfonyl)azetidin-3-yl)oxy)-[1,1′-biphenyl]-4-yl)but-3-yn-1-ol] |  |  |  |  | MIC (P. aeruginosa ATCC27853; ATCC27853, read-out: P. aeruginosa ATCC27853 MIC): 8 µg/mL (≈ 16.6 µM); MIC (K. pneumoniae ATCC13883; ATCC13883, read-out: K. pneumoniae ATCC13883 MIC): 2 µg/mL (≈ 4.15 µM); MIC (E. coli ATCC25922; ATCC25922, read-out: E. coli ATCC25922 MIC): 1 µg/mL (≈ 2.08 µM); MIC (P. aeruginosa PAO1; PAO1, read-out: P. aeruginosa PAO1 MIC): 4 µg/mL (≈ 8.31 µM) |
| C[C@H](O)c1nccn1[C@@H](C#Cc1ccc(-c2ccc([C@H]3COC[C@@H]3O)cc2)cc1)CO (single isomer, unassigned) [Compound 115] | 8 µg/mL (≈ 19.1 µM) | 1 µg/mL (≈ 2.39 µM) | 1 µg/mL (≈ 2.39 µM) | 2 µg/mL (≈ 4.78 µM) |  |
| C[C@H](O)c1nccn1[C@@H](C#Cc1ccc(-c2ccc(OC3CCN(CC#N)C3)cc2)cc1)CO (mixture of isomers) [Compound 104, 2-(3-((4′-((S)-4-hydroxy-3-(2-((S)-1-hydroxyethyl)-1H-imidazol-1-yl)but-1-yn-1-yl)-[1,1′-biphenyl]-4-yl)oxy)pyrrolidin-1-yl)acetonitrile] | 2 µg/mL (≈ 4.38 µM) | 4 µg/mL (≈ 8.76 µM) | 2 µg/mL (≈ 4.38 µM) | 2 µg/mL (≈ 4.38 µM) |  |
| CC(=O)N1CC(Nc2ccc(-c3ccc(C#C[C@@H](CO)n4ccnc4[C@H](C)O)cc3)cc2)C1 (single isomer, unassigned) [Compound 76] | 4 µg/mL (≈ 9 µM) | 16 µg/mL (≈ 36 µM) | 2 µg/mL (≈ 4.5 µM) | 4 µg/mL (≈ 9 µM) |  |
| C[C@H](O)c1nccn1[C@@H](C#Cc1ccc(-c2ccc(N[C@@H]3COC[C@H]3O)c(F)c2)cc1)CO (single isomer, unassigned) [Compound 59] | 4 µg/mL (≈ 8.86 µM) | 4 µg/mL (≈ 8.86 µM) | 1 µg/mL (≈ 2.21 µM) | 2 µg/mL (≈ 4.43 µM) |  |
| C[C@H](O)c1nccn1[C@@H](C#Cc1ccc(-c2ccc(NC3CN(CC#N)C3)cc2)cc1)CO (single isomer, unassigned) [Compound 66] | 4 µg/mL (≈ 9.06 µM) | 4 µg/mL (≈ 9.06 µM) | 1 µg/mL (≈ 2.26 µM) | 2 µg/mL (≈ 4.53 µM) |  |
| C[C@H](O)c1nccn1[C@@H](C#Cc1ccc(-c2ccc(C3CC(C)(O)C3)cc2)cc1)CO (stereo partly drawn) [Compound 111, 3-(4′-((S)-4-hydroxy-3-(2-((S)-1-hydroxyethyl)-1H-imidazol-1-yl)but-1-yn-1-yl)-[1,1′-biphenyl]-4-yl)-1-methylcyclobutan-1-ol] | 2 µg/mL (≈ 4.8 µM) | 0.5 µg/mL (≈ 1.2 µM) | 0.25 µg/mL (≈ 0.6 µM) | 1.5 µg/mL (≈ 3.6 µM) |  |
| C[C@H](O)c1nccn1[C@@H](C#Cc1ccc(-c2ccc(O[C@H]3COC[C@]3(O)C(F)(F)F)cc2)cc1)CO (racemic) [Compound 119, (rac-cis)-4-((4′-((S)-4-hydroxy-3-(2-((S)-1-hydroxyethyl)-1H-imidazol-1-yl)but-1-yn-1-yl)-[1,1′-biphenyl]-4-yl)oxy)-3-(trifluoromethyl)tetrahydrofuran-3-ol] | > 32 µg/mL | 8 µg/mL (≈ 15.9 µM) | 4 µg/mL (≈ 7.96 µM) | 8 µg/mL (≈ 15.9 µM) |  |
| C[C@H](O)c1nccn1[C@@H](C#Cc1ccc(-c2ccc([C@@H]3COC[C@H]3O)cc2)cc1)CO (single isomer, unassigned) [Compound 116] | 4 µg/mL (≈ 9.56 µM) | 2 µg/mL (≈ 4.78 µM) | 0.5 µg/mL (≈ 1.19 µM) | 1 µg/mL (≈ 2.39 µM) |  |
| C[C@H](O)c1nccn1[C@@H](C#Cc1ccc(-c2ccc(OC3COC[C@H]3O)c(F)c2)cc1)CO (single isomer, unassigned) [Compound 8] | 4 µg/mL (≈ 8.84 µM) | 4 µg/mL (≈ 8.84 µM) | 2 µg/mL (≈ 4.42 µM) | 2 µg/mL (≈ 4.42 µM) |  |
| C[C@H](O)c1nccn1[C@@H](C#Cc1ccc(-c2ccc(O[C@H]3C[C@@H](NCC#N)C3)cc2)cc1)CO (racemic) [Compound 131, 2-((rac-cis)-3-((4′-((S)-4-hydroxy-3-(2-((S)-1-hydroxyethyl)-1H-imidazol-1-yl)but-1-yn-1-yl)-[1,1′-biphenyl]-4-yl)oxy)cyclobutyl)amino) acetonitrile] | > 32 µg/mL | 2 µg/mL (≈ 4.38 µM) | 1 µg/mL (≈ 2.19 µM) | 2 µg/mL (≈ 4.38 µM) |  |
| CNC(=O)C(C)Oc1ccc(-c2ccc(C#C[C@@H](CO)n3ccnc3[C@H](C)O)cc2)cc1 (mixture of isomers) [Compound 102, 2-((4′-((S)-4-hydroxy-3-(2-((S)-1-hydroxyethyl)-1H-imidazol-1-yl)but-1-yn-1-yl)-[1,1′-biphenyl]-4-yl)oxy)-N-methylpropanamide] | 8 µg/mL (≈ 18.5 µM) | 4 µg/mL (≈ 9.23 µM) | 2 µg/mL (≈ 4.61 µM) | 4 µg/mL (≈ 9.23 µM) |  |
| C[C@H](O)c1nccn1[C@@H](C#Cc1ccc(-c2ccc(C3COC3)cc2)cc1)CO [Compound 128, (S)-2-(2-((S)-1-hydroxyethyl)-1H-imidazol-1-yl)-4-(4′-(oxetan-3-yl)-[1,1′-biphenyl]-4-yl)but-3-yn-1-ol] | 4 µg/mL (≈ 10.3 µM) | 1 µg/mL (≈ 2.57 µM) | 0.25 µg/mL (≈ 0.644 µM) | 2 µg/mL (≈ 5.15 µM) |  |
| CO[C@@H]1COC[C@H]1Oc1ccc(-c2ccc(C#C[C@@H](CO)n3ccnc3[C@H](C)O)cc2)cc1 (single isomer, unassigned) [Compound 125] |  |  |  |  | P. aeruginosa ATCC27853 MIC (P. aeruginosa ATCC27853; [5]): 8 µg/mL; K. pneumoniae ATCC13883 MIC (K. pneumoniae ATCC13883; [5]): 2 µg/mL; E. coli ATCC25922 MIC (E. coli ATCC25922; [5]): 1 µg/mL; P. aeruginosa PAO1 MIC (P. aeruginosa PAO1; [5]): 2 µg/mL |
| CNC(=O)N1CC(Oc2ccc(-c3ccc(C#C[C@@H](CO)n4ccnc4[C@H](C)O)cc3)cc2)C1 [Compound 90, 3-((4′-((S)-4-hydroxy-3-(2-((S)-1-hydroxyethyl)-1H-imidazol-1-yl)but-1-yn-1-yl)-[1,1′-biphenyl]-4-yl)oxy)-N-methylazetidine-1-carboxamide] | 2 µg/mL (≈ 4.34 µM) | 4 µg/mL (≈ 8.69 µM) | 2 µg/mL (≈ 4.34 µM) | 1 µg/mL (≈ 2.17 µM) |  |
| C[C@H](O)c1nccn1[C@@H](C#Cc1ccc(-c2ccc(OC3CN(CC#N)C3)c(F)c2)cc1)CO (single isomer, unassigned) [Compound 64] | 8 µg/mL (≈ 17.4 µM) | 2 µg/mL (≈ 4.34 µM) | 1 µg/mL (≈ 2.17 µM) | 8 µg/mL (≈ 17.4 µM) |  |
| CNC(=O)CN1CC(Oc2ccc(-c3ccc(C#C[C@@H](CO)n4ccnc4[C@H](C)O)cc3)cc2)C1 (single isomer, unassigned) [Compound 100] | 2 µg/mL (≈ 4.21 µM) | 2 µg/mL (≈ 4.21 µM) | 1 µg/mL (≈ 2.11 µM) | 2 µg/mL (≈ 4.21 µM) |  |
| C[C@H](O)c1nccn1[C@@H](C#Cc1ccc(-c2ccc(O[C@H]3C[C@H](CNCC#N)C3)cc2)cc1)CO (racemic) [Compound 133, 2-((((rac-trans)-3-((4′-((S)-4-hydroxy-3-(2-((S)-1-hydroxyethyl)-1H-imidazol-1-yl)but-1-yn-1-yl)-[1,1′-biphenyl]-4-yl)oxy)cyclobutyl)methyl)amino) acetonitrile] | 4 µg/mL (≈ 8.5 µM) | 8 µg/mL (≈ 17 µM) | 1 µg/mL (≈ 2.13 µM) | 4 µg/mL (≈ 8.5 µM) |  |
| C[C@H](O)c1nccn1[C@@H](C#Cc1ccc(-c2ccc(OC3CN(CC#N)C3)cc2F)cc1)CO (single isomer, unassigned) [Compound 63] | 4 µg/mL (≈ 8.69 µM) | 2 µg/mL (≈ 4.34 µM) | 0.5 µg/mL (≈ 1.09 µM) | 2 µg/mL (≈ 4.34 µM) |  |
| C[C@H](O)c1nccn1[C@@H](C#Cc1ccc(-c2ccc3c(c2)CCN3)cc1)CO [Compound 85, (S)-2-(2-((S)-1-hydroxyethyl)-1H-imidazol-1-yl)-4-(4-(indolin-5-yl)phenyl)but-3-yn-1-ol] | > 32 µg/mL | 2 µg/mL (≈ 5.36 µM) | 1 µg/mL (≈ 2.68 µM) | 16 µg/mL (≈ 42.8 µM) |  |
| C[C@H](O)c1nccn1[C@@H](C#Cc1ccc(-c2ccc(OC3CN(C4(C#N)COC4)C3)cc2)cc1)CO [Compound 87, 3-(3-((4′-((S)-4-hydroxy-3-(2-((S)-1-hydroxyethyl)-1H-imidazol-1-yl)but-1-yn-1-yl)-[1,1′-biphenyl]-4-yl)oxy)azetidin-1-yl)oxetane-3-carbonitrile] | 8 µg/mL (≈ 16.5 µM) | 4 µg/mL (≈ 8.25 µM) | 2 µg/mL (≈ 4.13 µM) | 4 µg/mL (≈ 8.25 µM) |  |
| C[C@H](O)c1nccn1[C@@H](C#Cc1ccc(-c2ccc(OC3COC3)cc2)cc1)CO (single isomer, unassigned) [Compound 107] | 4 µg/mL (≈ 9.89 µM) | 0.5 µg/mL (≈ 1.24 µM) | 0.25 µg/mL (≈ 0.618 µM) | 2 µg/mL (≈ 4.94 µM) |  |
| C[C@H](O)c1nccn1[C@@H](C#Cc1ccc(-c2ccc(O[C@@H]3COC[C@H]3O)cc2)cc1F)CO (racemic) [Compound 4, (rac-trans)-4-((3′-fluoro-4′-((S)-4-hydroxy-3-(2-((S)-1-hydroxyethyl)-1H-imidazol-1-yl)but-1-yn-1-yl)-[1,1′-biphenyl]-4-yl)oxy)tetrahydrofuran-3-ol] | 8 µg/mL (≈ 17.7 µM) | 4 µg/mL (≈ 8.84 µM) | 2 µg/mL (≈ 4.42 µM) | 8 µg/mL (≈ 17.7 µM) |  |
| C[C@H](O)c1nccn1[C@@H](C#Cc1ccc(-c2ccc(N[C@@H]3CCC[C@H]3O)cc2)cc1)CO [Compound 78, (1R,2R)-2-((4′-((S)-4-hydroxy-3-(2-((S)-1-hydroxyethyl)-1H-imidazol-1-yl)but-1-yn-1-yl)-[1,1′-biphenyl]-4-yl)amino)cyclopentan-1-ol] | 4 µg/mL (≈ 9.27 µM) | 4 µg/mL (≈ 9.27 µM) | 1 µg/mL (≈ 2.32 µM) | 4 µg/mL (≈ 9.27 µM) |  |
